Experimental data taken from ChEMBL document CHEMBL3774345, “Synthesis of new diarylamides with pyrimidinyl pyridine scaffold and evaluation of their anti-proliferative effect on cancer cell lines” (Bioorg Med Chem Lett, 2016).

How the values were obtained:
[1] = Cytotoxicity against human SKOV3 cells assessed as cell growth at 10^-5 M after 24 hrs by SRB assay; format: functional; settings: SK-OV-3, 24 h, read-out: Activity
U-251 = test: Cytotoxicity against human U251 cells assessed as cell growth at 10^-7 M after 24 hrs by SRB assay; format: functional; settings: U-251, 24 h, read-out: Activity
NCI-H460 [2] = test: Cytotoxicity against human NCI-H460 cells assessed as cell growth at 10^-6 M after 24 hrs by SRB assay; format: functional; settings: NCI-H460, 24 h, read-out: Activity
[3] = Cytotoxicity against human DU145 cells assessed as cell growth at 10^-6 M after 24 hrs by SRB assay; format: functional; settings: DU-145, 24 h, read-out: Activity
NCI-H460 [4] = test: Cytotoxicity against human NCI-H460 cells assessed as cell growth at 10^-5 M after 24 hrs by SRB assay; format: functional; settings: NCI-H460, 24 h, read-out: Activity
[5] = Cytotoxicity against human RPMI8226 cells assessed as cell growth at 10^-8 M after 24 hrs by SRB assay; format: functional; settings: RPMI-8226, 24 h, read-out: Activity
[6] = Cytotoxicity against human Hs 578T cells assessed as cell growth at 10^-4 M after 24 hrs by SRB assay; format: functional; settings: read-out: Activity
NCI-H23 = test: Cytotoxicity against human NCI-H23 cells assessed as cell growth at 10^-7 M after 24 hrs by SRB assay; format: functional; settings: NCI-H23, 24 h, read-out: Activity
[7] = Cytotoxicity against human Hs 578T cells assessed as cell growth at 10^-8 M after 24 hrs by SRB assay; format: functional; settings: read-out: Activity
[8] = Cytotoxicity against human UACC257 cells assessed as cell growth at 10^-4 M after 24 hrs by SRB assay; format: functional; settings: UACC-257, 24 h, read-out: Activity
A498 = test: Cytotoxicity against human A498 cells assessed as cell growth at 10^-7 M after 24 hrs by SRB assay; format: functional; settings: A498, 24 h, read-out: Activity
[9] = Cytotoxicity against human HL-60(TB) cells after 24 hrs by SRB assay; format: functional; settings: HL-60, 24 h
[10] = Cytotoxicity against human HCT15 cells assessed as cell growth at 10^-6 M after 24 hrs by SRB assay; format: functional; settings: HCT-15, 24 h, read-out: Activity
[11] = Cytotoxicity against human HL-60(TB) cells assessed as cell growth at 10^-8 M after 24 hrs by SRB assay; format: functional; settings: HL-60, 24 h, read-out: Activity
EKVX [12] = test: Cytotoxicity against human EKVX cells assessed as cell growth at 10^-5 M after 24 hrs by SRB assay; format: functional; settings: read-out: Activity
[13] = Cytotoxicity against human HCT15 cells after 24 hrs by SRB assay; format: functional, cell-based; settings: HCT-15, 24 h
M14 = test: Cytotoxicity against human M14 cells assessed as cell growth at 10^-5 M after 24 hrs by SRB assay; format: functional; settings: M14, 24 h, read-out: Activity
[14] = Cytotoxicity against human SKOV3 cells assessed as cell growth at 10^-7 M after 24 hrs by SRB assay; format: functional; settings: SK-OV-3, 24 h, read-out: Activity
[15] = Cytotoxicity against human BT549 cells assessed as cell growth at 10^-4 M after 24 hrs by SRB assay; format: functional; settings: BT-549, 24 h, read-out: Activity
[16] = Cytotoxicity against human BT549 cells assessed as cell growth at 10^-6 M after 24 hrs by SRB assay; format: functional; settings: BT-549, 24 h, read-out: Activity
SR = test: Cytotoxicity against human SR cells assessed as cell growth at 10^-4 M after 24 hrs by SRB assay; format: functional; settings: read-out: Activity
[17] = Cytotoxicity against human MOLT4 cells assessed as cell growth at 10^-5 M after 24 hrs by SRB assay; format: functional; settings: MOLT-4, 24 h, read-out: Activity
[18] = Cytotoxicity against human SF539 cells assessed as cell growth at 10^-7 M after 24 hrs by SRB assay; format: functional; settings: SF-539, 24 h, read-out: Activity
[19] = Cytotoxicity against human OVCAR3 cells assessed as cell growth at 10^-5 M after 24 hrs by SRB assay; format: functional; settings: OVCAR-3, 24 h, read-out: Activity
[20] = Cytotoxicity against human TK10 cells assessed as cell growth at 10^-7 M after 24 hrs by SRB assay; format: functional; settings: TK-10, 24 h, read-out: Activity
NCI-H322M = test: Cytotoxicity against human NCI-H322M cells assessed as cell growth at 10^-6 M after 24 hrs by SRB assay; format: functional; settings: read-out: Activity
[21] = Cytotoxicity against human NCI-ADR-RES cells assessed as cell growth at 10^-5 M after 24 hrs by SRB assay; format: functional; settings: read-out: Activity
EKVX [22] = test: Cytotoxicity against human EKVX cells assessed as cell growth at 10^-4 M after 24 hrs by SRB assay; format: functional; settings: read-out: Activity
MDA-MB-435 = test: Cytotoxicity against human MDA-MB-435 cells after 24 hrs by SRB assay; format: functional, cell-based; settings: MDA-MB-435, 24 h
SN12C = test: Cytotoxicity against human SN12C cells after 24 hrs by SRB assay; format: functional
SK-MEL-5 = test: Cytotoxicity against human SK-MEL-5 cells assessed as cell growth at 10^-6 M after 24 hrs by SRB assay; format: functional; settings: SK-MEL-5, 24 h, read-out: Activity
KM12 = test: Cytotoxicity against human KM12 cells assessed as cell growth at 10^-4 M after 24 hrs by SRB assay; format: functional; settings: KM12, 24 h, read-out: Activity
[23] = Cytotoxicity against human OVCAR5 cells assessed as cell growth at 10^-4 M after 24 hrs by SRB assay; format: functional; settings: OVCAR-5, 24 h, read-out: Activity
MDA-MB-231 [24] = test: Cytotoxicity against human MDA-MB-231 cells assessed as cell growth at 10^-7 M after 24 hrs by SRB assay; format: functional; settings: MDA-MB-231, 24 h, read-out: Activity
[25] = Cytotoxicity against human RPMI8226 cells after 24 hrs by SRB assay; format: functional; settings: RPMI-8226, 24 h
MDA-MB-231 [26] = test: Cytotoxicity against human MDA-MB-231 cells assessed as cell growth at 10^-4 M after 24 hrs by SRB assay; format: functional; settings: MDA-MB-231, 24 h, read-out: Activity
[27] = read-out: LC50 (the source's name)
[28] = read-out: pLC50 (the source's name) (converted)

O=C(Nc1cc(-c2cccnc2)nc(NCCCN2CCOCC2)n1)c1cc(Br)cc(C(F)(F)F)c1
growth at 10 µM [1]: 42% | growth at 0.1 µM (U-251): 97% | growth at 1 µM (NCI-H460 [2]): 99% | growth at 1 µM [3]: 101% | growth at 10 µM (NCI-H460 [4]): -5% | growth at 0.01 µM [5]: 103% | growth at 100 µM [6]: -35% | growth at 0.1 µM (NCI-H23): 98% | growth at 0.01 µM [7]: 93% | growth at 100 µM [8]: -93% | growth at 0.1 µM (A498): 92% | GI50 ([9]; read-out: GI50): 2.15 µM | CC50 [9, 27]: 90.1 µM | TGI ([9]; read-out: TGI): 5.86 µM | GI50 ([9]; read-out: pGI50 (converted)): 2.14 µM | CC50 [9, 28]: 89.1 µM | TGI ([9]; read-out: pTGI (converted)): 5.89 µM | growth at 1 µM [10]: 82% | growth at 0.01 µM [11]: 100% | growth at 10 µM (EKVX [12]): 17% | IC50 [13]: 1.92 µM | GI50 ([13]; read-out: GI50): 1.92 µM | CC50 [13, 27]: 19.3 µM | TGI ([13]; read-out: TGI): 5.28 µM | GI50 ([13]; read-out: pGI50 (converted)): 1.91 µM | CC50 [13, 28]: 19.5 µM | TGI ([13]; read-out: pTGI): 5.25 µM | growth at 10 µM (M14): -80% | growth at 0.1 µM [14]: 93% | growth at 100 µM [15]: -86% | growth at 1 µM [16]: 83% | growth at 100 µM (SR): -1% | growth at 10 µM [17]: 9% | growth at 0.1 µM [18]: 87% | growth at 10 µM [19]: 12% | growth at 0.1 µM [20]: 91% | growth at 1 µM (NCI-H322M): 91% | growth at 10 µM [21]: -4% | growth at 100 µM (EKVX [22]): -89% | IC50 (MDA-MB-435): 1.66 µM | GI50 (MDA-MB-435; read-out: GI50): 1.66 µM | CC50 (MDA-MB-435; [27]): 5.98 µM | TGI (MDA-MB-435; read-out: TGI): 3.15 µM | GI50 (MDA-MB-435; read-out: pGI50 (converted)): 1.66 µM | CC50 (MDA-MB-435; [28]): 6.03 µM | TGI (MDA-MB-435; read-out: pTGI (converted)): 3.16 µM | GI50 (SN12C; read-out: GI50): 7.74 µM | CC50 (SN12C; [27]): 53.5 µM | TGI (SN12C; read-out: TGI): 21.8 µM | GI50 (SN12C; read-out: pGI50 (converted)): 7.76 µM | CC50 (SN12C; [28]): 53.7 µM | TGI (SN12C; read-out: pTGI (converted)): 22.4 µM | growth at 1 µM (SK-MEL-5): 91% | growth at 100 µM (KM12): -90% | growth at 100 µM [23]: -67% | growth at 0.1 µM (MDA-MB-231 [24]): 87% | GI50 ([25]; read-out: GI50): 3.15 µM | CC50 [25, 27]: > 100 µM | TGI ([25]; read-out: TGI): 9.69 µM | GI50 ([25]; read-out: pGI50 (converted)): 3.16 µM | CC50 [25, 28]: > 100 µM | TGI ([25]; read-out: pTGI (converted)): 9.77 µM | growth at 100 µM (MDA-MB-231 [26]): -84%
